Reference: US20250018014A1, “METHOD FOR TREATING AND/OR PREVENTING REGNASE-1-RELATED DISEASE” (OSAKA UNIVERSITY, priority 2018, published 2025)
pIC50: −log10 of the molar value. Residues, ends and D or L forms follow the SMILES beside them.

Tests used:
[1] = target: T1, Reg1_301-599 (amino acids 301-599 of human Regnase-1) phosphorylation by TBK1 (Homo sapiens, UniProt Q5D1E8); experiment: Regnase-1 phosphorylation inhibition by compounds (AlphaScreen), TBK1, C-terminal Regnase-1; assay type: biochemical; details: Table 13, read-out: Phosphorylation inhibition Reg1_301-599, 50% inhibition concentration (TBK1)
T1 construct: made in house; host or cells: Expi293 cells
T1 sequence (Q5D1E8 301-599): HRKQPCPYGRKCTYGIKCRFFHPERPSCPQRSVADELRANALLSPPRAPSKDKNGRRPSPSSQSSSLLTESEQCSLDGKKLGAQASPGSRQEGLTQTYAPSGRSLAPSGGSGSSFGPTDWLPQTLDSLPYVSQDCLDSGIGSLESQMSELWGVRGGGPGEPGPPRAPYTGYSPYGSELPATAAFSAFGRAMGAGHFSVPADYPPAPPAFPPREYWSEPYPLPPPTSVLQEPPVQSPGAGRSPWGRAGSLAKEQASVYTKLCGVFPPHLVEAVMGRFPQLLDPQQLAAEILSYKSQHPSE
Method: (§1) Among the full-length human Regnase-1 sequence, the 1st to 546th amino acid sequence was prepared and made into a construct having a FLAG tag on the N-terminal side and a biotin ligase BirA recognition sequence on the C-terminal side (herein, a Regnase-1 lacking the C-terminal domain of Regnase-1 (amino acids 547 to 599 in the case of SEQ ID NO: 2) is referred to as “ΔCTD_Reg1”. “ΔCTD_Reg1” is different from “Regnase-1ΔCTD”, which is a C-terminal domain deletion variant resulting from a frameshift mutation caused by a 1 bp deletion at codon 517, as prepared in Example 13). In addition, the sequence from amino acids 301 to 599 of the full-length human Regnase-1 sequence was designated as C-terminal Regnase-1, and a construct having a FLAG tag on the N-terminal side and a recognition sequence for biotin ligase BirA on the C-terminal side was prepared (Reg1_301-599). The above-mentioned Regnase-1 was expressed in mammalian Expi293 cells, purified with FLAG M2 agarose, and isolated by gel filtration chromatography. When biotinylation was required, methods of nonpatent documents (BMC biotechnology, 2008,8,41; and Protein Science, 1999,8,921-929) were used.
(§2) Using Kinase assay buffer III (manufactured by SignalChem) supplemented with 2 mM DTT, 100 μM sodium vanadate, and 2 mM manganese chloride, kinase (IKKβ (manufactured by SignalChem) or TBK1 (manufactured by SignalChem)) and Regnase-1 were reacted in the presence of 10 μM ATP at room temperature for 2 hours to perform a phosphorylation reaction.
(§3) Phosphorylated Regnase-1 was detected by the AlphaScreen system. After each of the above-mentioned phosphorylated Regnase-1 antibodies was added and reacted at room temperature for one hour, anti-FLAG AlphaLISA Acceptor Beads (manufactured by PerkinElmer) and Protein A AlphaScreen Donor Beads (manufactured by PerkinElmer) were added, and EnVision (manufactured by PerkinElmer) was used to measure the excited luminescence. As a result, phosphorylated Regnase-1 produced by the phosphorylation reaction by kinase was specifically detected, and signals were confirmed to be enhanced in a manner dependent on Regnase-1 and kinase concentrations (FIG. 24).
(§4) After mixing 2 nM of the above-mentioned Regnase-1 and the compound, phosphorylated Regnase-1 produced by the phosphorylation reaction was detected by the AlphaScreen system. As the results, the inhibition rate was calculated from the signals obtained when adding the compound at each concentration, by defining the signal obtained with Regnase-1 alone to be 100% inhibition rate, and the signal obtained when the same amount of solvent (DMSO) is added in place of the compound as 0% inhibition rate. The 50% inhibition concentration (μM) was calculated from the obtained dose response curve (Table 11).

[2] = target: T2, Reg1_301-599 (amino acids 301-599 of human Regnase-1) phosphorylation by IKKβ (Homo sapiens, UniProt Q5D1E8); experiment: Regnase-1 phosphorylation inhibition by compounds (AlphaScreen), IKKβ, C-terminal Regnase-1; assay type: biochemical; details: Table 14, read-out: Phosphorylation inhibition Reg1_301-599, 50% inhibition concentration (IKKβ)
T2 construct: made in house; host or cells: Expi293 cells
T2 sequence (Q5D1E8 301-599): T1 sequence (Q5D1E8 301-599)
Text: The full-length sequence of human Regnase-1 (UniProt ID: Q5D1E8) was used to prepare a construct having a FLAG tag on the N-terminal side and a recognition sequence for biotin ligase BirA on the C-terminal side (FL_Reg1) as a target protein. The above-mentioned Regnase-1 was expressed in mammalian Expi293 cells, purified with FLAG M2 agarose, and isolated by gel filtration chromatography. When biotinylation was required, methods from nonpatent documents (BMC biotechnology, 2008,8,41; and Protein Science, 1999,8,921-929) were used.
as §1, §2, §3, §4

pIC50 [1]: < 4.21 | pIC50 [2]: < 4.21
Structure (SMILES): CC[C@H](C)[C@@H]1NC(=O)[C@H](Cc2c[nH]c3ccccc23)NC(=O)[C@@H](Cc2ccccc2)NC(=O)[C@H](CCCCN)NC(=O)[C@H](C)N(C)C(=O)C[C@@H](C(=O)N2CCCC2)NC(=O)[C@H](CCC(=O)O)NC(=O)[C@H](Cc2ccccc2)NC(=O)[C@H](CO)NC(=O)[C@H](Cc2c[nH]cn2)NC(=O)[C@H](Cc2c[nH]cn2)NC1=O [PP20] (HELM PEPTIDE1{[meA].K.[dF].W.I.H.H.S.F.E.D.[C1CCN([*:1])C1]}$PEPTIDE1,PEPTIDE1,1:R1-11:R3$$$V2.0)
